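Cultured in 96-well plates, cells were exposed to test compound for 48 hours across five concentrations. GI50 marks 50% less growth.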 Active and inactive are the calls of the source. Cut-off read from the data, not from the text of the source: active = GI50 up to about 1.1 µM and inactive = higher.
Legend:
Assay in all cases: NCI anticancer screen, dose series, 48 h
HCT-116 = test system: HCT-116
SF-268 = test system: SF-268
Malme-3M = test system: Malme-3M
ACHN = test system: ACHN
HOP-62 = test system: HOP-62
SNB-19 = test system: SNB-19
SK-MEL-28 = test system: SK-MEL-28
LOX IMVI = test system: LOX IMVI
UACC-257 = test system: UACC-257
RXF 393 = test system: RXF 393
EKVX = test system: EKVX
K562 = test system: K562
U-251 = test system: U-251
HCC 2998 = test system: HCC 2998
A549 = test system: A549
NCI-H522 = test system: NCI-H522

SMILES | GI50 (HCT-116) | GI50 (SF-268) | GI50 (Malme-3M) | GI50 (ACHN) | GI50 (HOP-62) | GI50 (SNB-19) | GI50 (SK-MEL-28) | GI50 (LOX IMVI) | GI50 (UACC-257) | GI50 (RXF 393) | GI50 (EKVX) | GI50 (K562) | GI50 (U-251) | GI50 (HCC 2998) | GI50 (A549) | GI50 (NCI-H522)
C/C(=N\NC(N)=O)C(CN1CCCCC1)C(c1ccccc1)c1c(O)c2ccccc2oc1=O (stereo not given) | > 100 µM (inactive) | > 100 µM (inactive) | > 100 µM (inactive) | > 100 µM (inactive) | > 100 µM (inactive) | > 100 µM (inactive) | > 100 µM (inactive) | > 100 µM (inactive) | > 100 µM (inactive) | > 100 µM (inactive) | > 100 µM (inactive) | > 100 µM (inactive) | > 100 µM (inactive) | > 100 µM (inactive) | > 100 µM (inactive) | > 100 µM (inactive)
Cc1ccc(C)c(NC(=O)c2cc(-c3ccc([N+](=O)[O-])cc3)nc(N)n2)c1 | > 100 µM (inactive) | > 100 µM (inactive) | > 100 µM (inactive) | > 100 µM (inactive) | > 100 µM (inactive) | > 100 µM (inactive) | > 100 µM (inactive) | > 100 µM (inactive) | > 100 µM (inactive) | > 100 µM (inactive) | > 100 µM (inactive) | > 100 µM (inactive) | > 100 µM (inactive) | > 100 µM (inactive) | > 100 µM (inactive) | > 100 µM (inactive)
Nn1c(S)nnc1NNC(=O)C(=O)Nc1cc(Cl)c(Cl)cc1Cl | > 100 µM (inactive) | > 100 µM (inactive) | > 100 µM (inactive) | > 100 µM (inactive) | > 100 µM (inactive) | > 100 µM (inactive) | > 100 µM (inactive) | > 100 µM (inactive) | > 100 µM (inactive) | > 100 µM (inactive) | > 100 µM (inactive) | 0.012 µM (active) | > 100 µM (inactive) | > 100 µM (inactive) | > 100 µM (inactive) | > 100 µM (inactive)
C[C@]12CCC(=O)C=C1CC[C@@H]1[C@@H]2CC[C@]2(C)C(=O)NC(=O)C[C@@H]12 | > 100 µM (inactive) | > 100 µM (inactive) | > 100 µM (inactive) | > 100 µM (inactive) | > 100 µM (inactive) | > 100 µM (inactive) | > 100 µM (inactive) | > 100 µM (inactive) | > 100 µM (inactive) | > 100 µM (inactive) | > 100 µM (inactive) | > 100 µM (inactive) | > 100 µM (inactive) | > 100 µM (inactive) | > 100 µM (inactive) | > 100 µM (inactive)
CCOC(=O)C(=Cc1ccc(C(=O)OC)cc1)C(=O)OCC | 3.33 µM (inactive) | 2.4 µM (inactive) | 1.8 µM (inactive) | 1.69 µM (inactive) | 2.2 µM (inactive) | 2.39 µM (inactive) | 1.71 µM (inactive) | 1.73 µM (inactive) | – | – | 11.1 µM (inactive) | 2.32 µM (inactive) | 1.66 µM (inactive) | 4.06 µM (inactive) | 3.37 µM (inactive) | 1.33 µM (inactive)
N/N=C(\CC1OC(=O)c2ccccc21)c1ccco1 (stereo not given) | > 100 µM (inactive) | > 100 µM (inactive) | > 100 µM (inactive) | > 100 µM (inactive) | – | > 100 µM (inactive) | > 100 µM (inactive) | 80 µM (inactive) | > 100 µM (inactive) | > 100 µM (inactive) | > 100 µM (inactive) | 50 µM (inactive) | – | > 100 µM (inactive) | > 100 µM (inactive) | > 100 µM (inactive)
CCNC(=O)C#CC(=O)NCC | 21.9 µM (inactive) | 53.7 µM (inactive) | > 10 µM (inactive) | > 100 µM (inactive) | > 100 µM (inactive) | > 100 µM (inactive) | > 10 µM (inactive) | > 83.9 µM (inactive) | > 100 µM (inactive) | > 10 µM (inactive) | > 100 µM (inactive) | > 45.3 µM (inactive) | > 91.4 µM (inactive) | > 100 µM (inactive) | > 60.5 µM (inactive) | > 31.1 µM (inactive)
CC(C)C1CO[C@]2(C)CCC(=O)N12 (stereo not given in full) | > 100 µM (inactive) | > 100 µM (inactive) | > 100 µM (inactive) | > 100 µM (inactive) | > 100 µM (inactive) | > 100 µM (inactive) | > 100 µM (inactive) | – | > 100 µM (inactive) | > 100 µM (inactive) | > 100 µM (inactive) | > 100 µM (inactive) | > 100 µM (inactive) | – | > 100 µM (inactive) | > 100 µM (inactive)
COc1ccc2c(CCNS(=O)(=O)c3ccccc3)c(C(C)=O)[nH]c2c1[N+](=O)[O-] | > 100 µM (inactive) | 53.3 µM (inactive) | – | > 100 µM (inactive) | 86.7 µM (inactive) | > 100 µM (inactive) | > 10 µM (inactive) | > 100 µM (inactive) | > 100 µM (inactive) | – | – | > 100 µM (inactive) | > 100 µM (inactive) | > 100 µM (inactive) | > 100 µM (inactive) | > 100 µM (inactive)
Cn1c(=O)c2[nH]cnc2n(CC(N)=O)c1=O | > 100 µM (inactive) | > 100 µM (inactive) | > 100 µM (inactive) | > 100 µM (inactive) | > 100 µM (inactive) | > 100 µM (inactive) | > 100 µM (inactive) | – | – | – | > 100 µM (inactive) | > 100 µM (inactive) | > 100 µM (inactive) | – | > 100 µM (inactive) | > 100 µM (inactive)
O=C(CC(=O)Nc1cccc(Cl)c1)NNCC(=O)Nc1nnc(-c2ccccc2)s1 | 24.8 µM (inactive) | 31.8 µM (inactive) | – | 39.8 µM (inactive) | 21.9 µM (inactive) | 36 µM (inactive) | > 100 µM (inactive) | 43.2 µM (inactive) | 99.1 µM (inactive) | – | 57.3 µM (inactive) | 27.4 µM (inactive) | 34 µM (inactive) | > 100 µM (inactive) | > 100 µM (inactive) | 64.1 µM (inactive)
C/C(=N\NS(=O)(=O)c1ccc(C)cc1)C(CN1CCOCC1)C(c1ccccc1)c1c(O)c2ccccc2oc1=O (stereo not given) | > 100 µM (inactive) | > 100 µM (inactive) | > 100 µM (inactive) | > 100 µM (inactive) | > 100 µM (inactive) | > 100 µM (inactive) | – | > 100 µM (inactive) | > 100 µM (inactive) | 68.2 µM (inactive) | > 100 µM (inactive) | 53.2 µM (inactive) | > 100 µM (inactive) | – | > 100 µM (inactive) | 59.8 µM (inactive)
COC(=O)c1ccc(OCc2ccc3oc(=O)c(-c4ccccc4)nc3c2)cc1 | > 100 µM (inactive) | > 100 µM (inactive) | 59.2 µM (inactive) | > 100 µM (inactive) | > 100 µM (inactive) | > 100 µM (inactive) | > 100 µM (inactive) | > 100 µM (inactive) | > 100 µM (inactive) | – | > 100 µM (inactive) | 27.9 µM (inactive) | > 100 µM (inactive) | > 100 µM (inactive) | > 100 µM (inactive) | 33.6 µM (inactive)
COc1ccc(-c2cc(Cc3cccs3)c(=O)[nH]n2)cc1 | > 100 µM (inactive) | > 100 µM (inactive) | > 100 µM (inactive) | 32.7 µM (inactive) | – | > 100 µM (inactive) | 95.1 µM (inactive) | – | 42.3 µM (inactive) | 83.8 µM (inactive) | > 100 µM (inactive) | – | > 100 µM (inactive) | > 100 µM (inactive) | 57 µM (inactive) | –
COC(=O)c1c/c(=N\NC(=O)CC(=O)Nc2ccc(C)cc2)c2ccccc2o1 | > 100 µM (inactive) | > 100 µM (inactive) | > 100 µM (inactive) | > 100 µM (inactive) | > 100 µM (inactive) | > 100 µM (inactive) | > 100 µM (inactive) | > 100 µM (inactive) | > 100 µM (inactive) | > 100 µM (inactive) | > 100 µM (inactive) | > 100 µM (inactive) | > 100 µM (inactive) | – | > 100 µM (inactive) | > 100 µM (inactive)
CN1CCN(CCNc2ccc(CO)c3sc4ccccc4c(=O)c23)CC1 | 5.69 µM (inactive) | 11.6 µM (inactive) | 11.5 µM (inactive) | 13.8 µM (inactive) | 5.06 µM (inactive) | 21 µM (inactive) | 15.5 µM (inactive) | – | 15.2 µM (inactive) | – | – | 3.84 µM (inactive) | 3.11 µM (inactive) | 6.87 µM (inactive) | 10.5 µM (inactive) | 3.38 µM (inactive)
CC(C)C(Nc1c2ccccc2[n+]([O-])c2ccccc12)C(=O)O (stereo not given) | 44.6 µM (inactive) | 55.3 µM (inactive) | 28.1 µM (inactive) | 35.2 µM (inactive) | > 100 µM (inactive) | > 100 µM (inactive) | 43.1 µM (inactive) | 50.9 µM (inactive) | 66.2 µM (inactive) | – | > 100 µM (inactive) | 38.5 µM (inactive) | > 100 µM (inactive) | > 100 µM (inactive) | > 100 µM (inactive) | 81.3 µM (inactive)
CCN(CC)CC(C(=O)Nc1c(C)cccc1C)/C(C)=N\NC(=O)C[N+](C)(C)C (stereo not given) | > 100 µM (inactive) | > 100 µM (inactive) | > 100 µM (inactive) | > 100 µM (inactive) | > 100 µM (inactive) | > 100 µM (inactive) | > 100 µM (inactive) | > 100 µM (inactive) | > 100 µM (inactive) | > 100 µM (inactive) | – | > 100 µM (inactive) | > 100 µM (inactive) | > 100 µM (inactive) | > 100 µM (inactive) | > 100 µM (inactive)

From ChEMBL document CHEMBL1201862, “PubChem BioAssay data set” (2004)
